Source: PMC6010013, “Synthesis, physiochemical property and antimicrobial activity of novel quaternary ammonium salts” (Journal of Enzyme Inhibition and Medicinal Chemistry, 2017)

How the values were obtained:
P. aeruginosa = experiment: MIC, broth tube dilution; format: cell-based; details: 12 h, 37℃; for MIC: Pseudomonas aeruginosa, read-out: Minimal inhibitory concentration (MIC)
Excerpt: (§1) In this paper, antimicrobial activities of 24 QASs were detected by quantitative tests. […] Benzalkonium chloride (BZK) and chlorhexidine acetate (CA) was selected as positive controls. Representative compound POT-C12QAS (2) which synthesised and evaluated in previous work was also taken as a reference compound in MIC, MBC and cytotoxicity tests. […]
(§2) agriculture were used as target pathogens in this study, including three strains of Gram-positive bacteria (S. Aureus, α-H-tococcus, β-H-tococcus), three strains of Gram-negative bacteria (E. coli, P. aeruginosa, Proteus vulgaris) and four strains of fungi (Canidia albicans, Cytospora mandshurica, Physalospora piricola, Aspergillus niger). The antimicrobial tests were assayed, according to standard CLSI methods for antimicrobial dilution susceptibility tests to measure the minimum inhibitory concentration (MIC) and minimum bactericidal concentration (MBC)2.
(§3) A broth tube dilution method was followed to determine the MIC values for all the screened compounds against the micro-organisms, and for comparison benzalkonium chloride (BZK) and chlorhexidine acetate (CA) was used as a reference. For sample preparation, each of the test compounds and reference were dissolved in DMSO or sterile water at a concentration of 1600 μg/mL, and further dilutions of the compounds and reference in culture medium MHB (Muller-Hinton Broth) were prepared at the required quantities of 400, 200, 100 etc., down to 0.39 μg/mL. Bacterial strains and fungal strains were maintained on MHA (Muller-Hinton Agar) medium at 37℃ or 28 ℃ for 12 h or 72h, respectively. The microbial inocula were prepared by suspension in 10 mL of culture medium for colonies from culture on MHA. The cell density of each inoculum was adjusted in culture medium of a 0.5 McFarland standard (1-2×10^8 CFU/mL). The final amount applied was 10^5 CFU/mL for bacteria and fungi. The microbial inocula were added to the twofold diluted samples. One growth control tube was prepared […] the addition of the compound and one blank tube was prepared without the addition of the microorganism. MIC values were read after incubation at 37℃ or 28 ℃ for bacterial and fungal strains, respectively. After 12 h or 72h, the last tube with no growth of micro-organisms was recorded to represent the MIC value expressed in μg/ml. All experiments were carried out three times. […]

Proteus vulgaris = experiment: MIC, broth tube dilution; format: cell-based; details: 12 h, 37℃; for MIC: read-out: Minimal inhibitory concentration (MIC)
Excerpt: as §1, §2, §3

S. aureus = experiment: MIC, broth tube dilution; format: cell-based; details: 12 h, 37℃; for MIC: Staphylococcus aureus, read-out: Minimal inhibitory concentration (MIC)
Excerpt: as §1, §2, §3

E. coli = experiment: MIC, broth tube dilution; format: cell-based; details: 12 h, 37℃; for MIC: Escherichia coli, read-out: Minimal inhibitory concentration (MIC)
Excerpt: as §1, §2, §3

Canidia albicans = experiment: MIC, broth tube dilution; format: cell-based; details: 28 ℃; for MIC: 72 h, read-out: Minimal inhibitory concentration (MIC)
Excerpt: as §1, §2, §3

Cytospora mandshurica = experiment: MIC, broth tube dilution; format: cell-based; details: 28 ℃; for MIC: Cytospora, 72 h, read-out: Minimal inhibitory concentration (MIC)
Excerpt: as §1, §2, §3

Aspergillus niger = experiment: MIC, broth tube dilution; format: cell-based; details: 28 ℃; for MIC: 72 h, read-out: Minimal inhibitory concentration (MIC)
Excerpt: as §1, §2, §3

α-H-tococcus = experiment: MIC, broth tube dilution; format: cell-based; details: 12 h, 37℃; for MIC: read-out: Minimal inhibitory concentration (MIC)
Excerpt: as §1, §2, §3

β-H-tococcus = experiment: MIC, broth tube dilution; format: cell-based; details: 12 h, 37℃; for MIC: read-out: Minimal inhibitory concentration (MIC)
Excerpt: as §1, §2, §3

Physalospora piricola = experiment: MIC, broth tube dilution; format: cell-based; details: 28 ℃; for MIC: 72 h, read-out: Minimal inhibitory concentration (MIC)
Excerpt: as §1, §2, §3

Haemolysis assay = format: cell-based; details: human red blood cells (erythrocyte suspension), 1 h at 37 ℃, read-out: Haemolysis rate; for hemolysis at 1 h, 12.5 μg/mL: 12.50 μg/mL
Procedure: The surfactant may be absorbed and penetrate to the cell membrane, where it makes osmotic phenomena by altering the permeability of membrane, which in turn causes the cellular lysis. Haemolysis assay gives quantitative estimation about haemoglobin release when red blood cells are treated with QASs. Haemolytic assay of QASs at different concentration was carried out in Table 4. […] For 5a-b, 6a-b, 10a-c, 13a-b, and 16a-d, their safe concentration can more than 100 μg/mL. Compared with BZK and CA, all QASs were safe to be used when they circulated into the blood in low concentration. […]
The human blood from healthy individual was collected in a tube containing heparin, and the blood was centrifuged at 1500 rpm for 3 min. The […] (Erythrocyte) was collected and plasma was discarded and further washed five times with sterile normal saline solution. Then the cells were diluted to 0.2% of their volume with normal saline solution. 2 mL of the diluted red blood cells suspension was mixed with (a) 2 mL of normal salinesolution as a negative control; (b) 2 mL of distilled water as a positive control; (c) 2 mL of QAS solution which were dispersed into normal saline solution at the different concentrations ranging from 3.125 to 400 μg/mL. Then the mixtures were shaken well and incubated for 1 h at 37 ℃. Finally, the mixtures were centrifuged for 5min at 2000 r/min and the absorbances of supernatant at 540 nm was measured by a microplate reader (Multiskan MK3-Thermo Labsystems, USA). The hemolysis ratio was calculated as follows: The hemolysis ratio(%) = (OD Sample−OD Negative)/(OD Positive −OD Negative) ×100%. The hemolysis evaluation of QASs was performed in triplicate and results were expressed as the mean ± SD.

Cytotoxicity, MTT assay = format: cell-based, human; details: human, MTT, 24 h
Procedure: These six series of antimicrobial compounds may be applied to daily or clinical disinfectants for unbroken skin and trauma, or agricultural fungicides alternatively. Thus, their cytotoxicity for skin or body tissues are crucial. In this study, the cytotoxicity of target compounds was evaluated for human immortalised epidermal (HaCat) and human normal liver (LO2) cell line using MTT assay. […] The IC50 values of 5a, 6a, 10a, 16a, 16 b were about more than 50 μg/mL for LO2 and HaCat.
Cytotoxicity Testing with MTT Method
Human immortalized epidermal cells (HaCat) line were cultured in Dulbecco’s modified Eagle’s medium containing 10% fetal bovine serum, 1% penicillin, and 1% streptomycin at 37°C in a 5% CO2/95% air incubator MCO-15AC (SANYO). Human normal liver cells (LO2) line were cultured in Roswell Park Memorial Institute medium containing 10% fetal bovine serum, 1% penicillin, and 1% streptomycin at 37°C in a 5% CO2/95% air incubator MCO-15AC (SANYO). HaCat or LO2 cells in 96-well plate were adjusted to 1.0 × 10^5 cells mL-1 and cells were passed and cell supernatant was pour out before plating on glass slide at 37°C, 5% CO2 for 24 h. Cells were pretreated with 100 μL QAS for 24 h and cell supernatant with QAS was pour out and washed with PBS buffer system. Then, the cells were treated with the MTT solution (MTT, 3-(4,5-dimethythiazol-2-yl)-2,5-diphenyl-tetrazolium bromide, 20 μL, 5 mg/mL) for 4 h. The dark blue formazan crystal formed in the intact cells was solubilized with dimethyl sulfoxide, and absorbance at 570 nm was measured with a microplate reader (Multiskan MK3-Thermo Labsystems, USA). The results were expressed as percentage of the control value from the normal cells without treatments of QAS. […]

[1] = LO2 human normal liver cells, LO2 cells

Molecule | MIC (P. aeruginosa) [µg/mL] | MIC (Proteus vulgaris) [µg/mL] | MIC (S. aureus) [µg/mL] | MIC (E. coli) [µg/mL] | MIC (Canidia albicans) [µg/mL] | MIC (Cytospora mandshurica) [µg/mL] | MIC (Aspergillus niger) [µg/mL] | MIC (α-H-tococcus) [µg/mL] | MIC (β-H-tococcus) [µg/mL] | MIC (Physalospora piricola) [µg/mL] | hemolysis at 1 h, 6.25 μg/mL (Haemolysis assay) [%] | hemolysis at 1 h, 12.5 μg/mL (Haemolysis assay) [%] | hemolysis at 1 h, 25 μg/mL (Haemolysis assay) [%] | hemolysis at 1 h, 50 μg/mL (Haemolysis assay) [%] | hemolysis at 1 h, 100 μg/mL (Haemolysis assay) [%] | hemolysis at 1 h, 200 μg/mL (Haemolysis assay) [%] | hemolysis at 1 h, 400 μg/mL (Haemolysis assay) [%] | IC50 at 24 h (Cytotoxicity, MTT assay; [1]) [µg/mL] | IC50 at 24 h (Cytotoxicity, MTT assay; HaCat cells) [µg/mL] | also measured
[H]/N=C(\N/C(=N/[H])NCCCCCCNC(=N)NC(=N)Nc1ccc(Cl)cc1)Nc1ccc(Cl)cc1 [CA, chlorhexidine acetate, reference compound] | 25 | 12.5 | 3.12 | 6.25 | 12.5 | 6.25 | 3.12 | 6.25 | 1.56 | 1.56 | 0.86 ± 0.28 | 2.51 ± 0.87 | 5.29 ± 1.22 | 37 ± 3.78 | 62.2 ± 3.53 | 86 ± 3.82 | 95.7 ± 3.54 |  |  | 
C[N+](CCO)(CCO)CCCCCCCCCCCCSc1nnc(-c2ccccc2)o1 [Compound 2, reference compound] | 12.5 | 25 | 6.25 | 25 | 6.25 | 3.12 | 3.12 | 6.25 | 6.25 | 3.12 | 0.18 ± 0.05 | 0.42 ± 0.13 | 0.93 ± 0.41 | 4.11 ± 0.89 | 17.1 ± 2.34 | 82.8 ± 3.18 | 90.6 ± 4.23 | 14.2 ± 2.15 |  | IC50 at 24 h (Cytotoxicity, MTT assay; HaCat human immortalised epidermal cells, HaCat cells): 18.3 ± 2.21 µg/mL
C[N+](CCO)(CCO)CCCCCCSc1nnc(-c2ccc(F)cc2)o1 [Compound 5a] | 100 | 100 | 100 | 100 | 50 | 50 | 50 | 50 | 25 | 12.5 | 0.21 ± 0.03 | 0.53 ± 0.15 | 1.37 ± 0.87 | 1.54 ± 0.96 | 3.25 ± 1.23 | 6.21 ± 3.21 | 35.6 ± 4.87 | > 50 | > 50 | 
C[N+](CCO)(CCO)CCCCCCCCCCSc1nnc(-c2ccc(F)cc2)o1 [Compound 5c] | 50 | 50 | 25 | 25 | 25 | 12.5 | 25 | 12.5 | 6.25 | 3.12 | 0.43 ± 0.16 | 0.75 ± 0.19 | 2.31 ± 0.67 | 4.89 ± 0.53 | 33.1 ± 4.87 | 52.3 ± 6.34 | 67.2 ± 5.89 | 23.9 ± 1.68 | 19.4 ± 1.23 | 
Benzalkonium chloride [BZK, reference compound] |  |  |  |  |  |  |  |  |  |  |  |  |  |  |  |  |  |  |  | Minimal inhibitory concentration (MIC) (P. aeruginosa): 25 µg/mL; Minimal inhibitory concentration (MIC) (Proteus vulgaris): 25 µg/mL; Minimal inhibitory concentration (MIC) (S. aureus): 3.125 µg/mL; Minimal inhibitory concentration (MIC) (E. coli): 25 µg/mL; Minimal inhibitory concentration (MIC) (Canidia albicans; 72h): 12.5 µg/mL; Minimal inhibitory concentration (MIC) (Cytospora mandshurica; 72h): 6.25 µg/mL; Minimal inhibitory concentration (MIC) (Aspergillus niger; 72h): 3.125 µg/mL; Minimal inhibitory concentration (MIC) (α-H-tococcus): 3.125 µg/mL; Minimal inhibitory concentration (MIC) (β-H-tococcus): 1.56 µg/mL; Minimal inhibitory concentration (MIC) (Physalospora piricola; 72h): 3.125 µg/mL
